Data on six compounds can be found in publication PMC8205227 (ACS Infectious Diseases, 2021).

The IC50 is the point on the concentration scale where inhibition reaches its midpoint. One may read the solubility (kinetic) as solubility judged after dilution from a stock solution rather than from solid. The term chromatographic logD denotes lipophilicity estimated from chromatographic retention. Read a low chromatographic logD as lower lipophilicity. For orientation: Ki means the dissociation constant of the complex between target and ligand, obtained from inhibition or displacement. Read a low Ki as higher affinity. Usually Km stands for the concentration of substrate that gives half-maximal velocity.

Data set [1] has as its target M. tuberculosis CoaBC (Mycobacterium tuberculosis, UniProt P9WNZ1). The data set is classed as binding.
The test system of data set [2] is Mtb CoaE. The arrangement: method as in PMID 21731728. To be noted: 100 μM CTP; cited from earlier work.
Data set [3] relates to HepG2 cells. Nature of the data set: HepG2 cytotoxicity. The data set is classed as cell-based. To be noted: Homo sapiens. The source says:
(§1) Compounds were profiled for HepG2 cytotoxicity, mouse liver microsomal clearance, and aqueous solubility, as previously described.[66]

Data set [4] deals with Mtb H37RvMA. Nature of the data set: microbe, parasite or virus in culture. The data set is classed as cell-based, Mycobacterium tuberculosis.
Data set [5] can be described thus: physchem. It is filed as physicochemical. The following applies: kinetic from dmso stock.
From the text: as §1

Data set [6] has as its target Mtb CoaB (Mycobacterium tuberculosis, UniProt P9WNZ1). Briefly: BIOMOL Green end-point pyrophosphate quantification assay (high-throughput screen). It is filed as biochemical. The following applies: BIOMOL Green pyrophosphate quantification assay.
A short description of data set [7]: physchem. It is filed as physicochemical. The source says: Table 1 SAR and In Vitro Profiling of Modifications to Compound 1a ^a | column: CHI LogD
For data set [8], the system named is pyrophosphatase. Nature of the data set: Counter-screen for false positives (pyrophosphatase inactivation). The data set is classed as biochemical. The procedure: Counter-screens carried out to exclude false positive compounds were performed in 50 μL reactions containing 0.5 U/mL pyrophosphatase and 2 μM pyrophosphate in 100 mM Tris-HCl, pH 7.6, buffer containing 1 mM MgCl2 and 1 mM TCEP for 2 h at room temperature in 384-well microplates (Greiner Bio-One). Control reactions were performed in the absence of the pyrophosphatase. The reactions were terminated by addition of 50 μL BIOMOL Green (Enzo Life Sciences), and product formation was measured by absorbance (650 nm) using a PHERAstar microplate reader (BMG Labtech) following incubation for 20 min. Liquid dispensing was performed using a Thermo Scientific Matrix Wellmate, and data were processed and analyzed using ActivityBase (IDBS).
(A counterscreen serves to expose hits that act by an unwanted route or on another target.)

Data set [9] is classed as in vitro ADME, mouse. The following applies: mouse, microsomes.
From the text: as §1

For data set [10], the system named is coaBC Tet-OFF hypomorph. Nature of the data set: microbe, parasite or virus in culture. The data set is classed as cell-based, Mycobacterium tuberculosis. To be noted: for MIC: read-out: MIC in the presence of PantS.
In data set [11] the test system is wild-type Mtb H37RvMA. Briefly: LC-MS metabolomic profiling of Mtb after compound exposure. It is filed as cell-based, Mycobacterium tuberculosis. To be noted: 5 μM or 50 μM, 24 h.
Data set [12] deals with T1, Mtb CoaBC (Mycobacterium tuberculosis, UniProt P9WNZ1).
For data set [13], the target named is human CoaB (Homo sapiens, UniProt Q9HAB8). Nature of the data set: EnzChek coupled enzyme pyrophosphate assay, human CoaB. It is filed as biochemical. To be noted: 1 μM human CoaB; read-out: IC50 against human CoaB (EnzChek assay).
For data set [14], the target named is T1, Mtb CoaBC. Nature of the data set: biochemical.
Data set [15] concerns the target T1, Mtb CoaBC. Briefly: CMP quantification assay for L-cysteine kinetics and competition. The data set is classed as biochemical.
In data set [16] the test system is coupled reporter enzymes (inorganic pyrophosphatase, purine nucleoside phosphorylase). Briefly: Inhibition of the coupled reporter enzymes of the EnzChek assay. It is filed as biochemical. To be noted: at 100 μM.
In data set [17] the test system is CoaB. The arrangement: method as in PMID 33420031. The following applies: allosteric CoaB inhibitor; cited from earlier work.
For data set [18], the system named is Mtb H37RvMA. The arrangement: method as in PMID 33420031. The following applies: cited from earlier work.
For data set [19], the system named is coaBC hypomorph. It is filed as cell-based, Mycobacterium tuberculosis. The following applies: ATc 200 ng/mL; pantothenate 25 µg/mL.
Data set [20] relates to panC Tet-OFF hypomorph. It is filed as cell-based, Mycobacterium tuberculosis. To be noted: pantothenate 25 µg/mL.
The test system of data set [21] is Nc1ccn([C@@H]2O[C@H](COP(=O)(O)OP(=O)(O)OP(=O)(O)O)[C@@H](O)[C@H]2O)c(=O)n1. Nature of the data set: purified protein, by the assay type. To be noted: other: other substrates fixed (125 μM CTP or PPA, 500 μM L-cysteine); pH 7.5.
The subject of data set [22] is CC(C)(COP(=O)(O)O)[C@@H](O)C(=O)NCCC(=O)O. Nature of the data set: purified protein, by the assay type. The following applies: other: other substrates fixed (125 μM CTP or PPA, 500 μM L-cysteine); pH 7.5.
Where [23] appears, read: Mycobacterium tuberculosis, H37RV, read-out: Mtb H37Rv MIC.

Converted amounts (≈) assume the structure as drawn. “And” between values parts separate entries of the source, which are not always exact repeats. Equal values may be shown once. “Also recorded” adds a separate entry of the source. Read-outs that look alike come from different tables or passages of the source.

T1 sequence (P9WNZ1 whole entry): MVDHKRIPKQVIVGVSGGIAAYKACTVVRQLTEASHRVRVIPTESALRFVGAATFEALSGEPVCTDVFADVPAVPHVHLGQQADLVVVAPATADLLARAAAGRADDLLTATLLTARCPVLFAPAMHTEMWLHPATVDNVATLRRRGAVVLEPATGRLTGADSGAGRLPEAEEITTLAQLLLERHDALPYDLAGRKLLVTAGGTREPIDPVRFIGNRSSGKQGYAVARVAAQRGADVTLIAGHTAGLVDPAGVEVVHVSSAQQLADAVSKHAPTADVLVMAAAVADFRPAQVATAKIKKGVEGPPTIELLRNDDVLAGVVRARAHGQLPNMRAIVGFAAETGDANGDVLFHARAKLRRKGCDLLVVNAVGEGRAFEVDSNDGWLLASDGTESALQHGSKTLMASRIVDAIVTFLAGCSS
M. tuberculosis CoaBC, sequence (P9WNZ1 whole entry): as above
Mtb CoaB, sequence (P9WNZ1 whole entry): as above
human CoaB, sequence (Q9HAB8 whole entry): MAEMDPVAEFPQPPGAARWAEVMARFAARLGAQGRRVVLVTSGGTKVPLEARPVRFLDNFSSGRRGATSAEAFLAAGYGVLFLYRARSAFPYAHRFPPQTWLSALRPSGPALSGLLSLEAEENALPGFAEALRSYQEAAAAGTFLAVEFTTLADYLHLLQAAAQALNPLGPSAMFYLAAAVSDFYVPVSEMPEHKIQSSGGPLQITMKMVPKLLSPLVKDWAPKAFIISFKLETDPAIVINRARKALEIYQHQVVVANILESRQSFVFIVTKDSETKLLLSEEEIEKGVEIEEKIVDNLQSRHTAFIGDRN

For `Nc1ccn([C@@H]2O[C@H](COP(=O)(O)OP(=O)(O)OP(=O)(O)O)[C@@H](O)[C@H]2O)c(=O)n1` [CTP, cytidine-5′-triphosphate], in data set [1], the “Thermal shift relative to CoaBC, Substrate” value came out at 5.5 °C. The “Decrease in CoaE activity” value in data set [2] is “greater than 60%”.

`Cc1nn(-c2ccccc2)c(O)c1Sc1ccccc1` [Compound 1a, 4-Phenylsulfanyl-5-methyl-2-phenyl-pyrazol-3-ol]: the values for the IC50 in data set [3] and in data set [6] were above 50 µM and 9.9 µM, respectively. Moreover, the MIC in data set [4] (setting [23]) and in [4] (read-out: Mtb H37Rv MIC) was above 125 µM each time. This compound also showed a kinetic solubility in [5] of 219 µM (≈ 61.8 µg/mL). The chromatographic logD in data set [7] was 0.4. In addition, the “Activity in counter-screen for pyrophosphatase inactivation” value in data set [8] is reported as “inactivity”. Also, the “Mouse Cli (intrinsic clearance)” value in [9] is below 0.5 mL/min/g.

Take `Cc1nn(-c2ccccc2)c(O)c1Sc1nc2cc(Cl)ccc2o1` [Compound 1f, 4-(5-Chloro-1,3-benzoxazol-2-yl)sulfanyl-5-methyl-2-phenyl-pyrazol-3-ol]: the MIC in [10] (Mycobacterium tuberculosis) is 77.2 µM; in [10] it was above 125 µM; in [4] (setting [23]) it was 25.9 µM (≈ 9.27 µg/mL); in data set [4] (Mycobacterium tuberculosis, H37RVMA, read-out: MIC in the presence of PantS), 83.3 µM; in data set [4] (read-out: MIC in the presence of PantS), above 125 µM. Further, in [10] (in the presence of 12.5 ng/mL ATc), the “Fold decrease in MIC against coaBC hypomorph” value is listed as around 7 fold. In [10] (increasing ATc, inhibitor up to 125 μM), the “Effect of ATc-mediated coaBC silencing on susceptibility of the coaBC hypomorph (hypersensitization)” value is on record as “dose-dependent hypersensitization”. The “Fold reduction in susceptibility of coaBC hypomorph on PantS supplementation” value in data set [10] (pantethine 2.5 mg/mL) stood at 4 fold. Moreover, the “Change in abundance of CoA thioesters propionyl-CoA, succinyl-CoA and malonyl-CoA relative to untreated bacilli” value in data set [11] is given as “notable depletion”. Moreover, the “Change in abundance of dephospho-CoA relative to untreated bacilli” value in data set [11] is “substantial accumulation”. In addition, in [11], the “Change in the level of CoA” value is reported as “no detectable change”. Moreover, the IC50 in data set [3] was above 50 µM; in [13] it was 23.4 µM; in data set [14], 24.3 µM; in data set [6] it was 15.6 µM. In addition, in data set [12], the “Mode of inhibition with respect to CTP” value is listed as “noncompetitive inhibition”. Also, in [12], the “Mode of inhibition with respect to PPA” value is recorded as “uncompetitively; also recorded: uncompetitive inhibition”. For the same compound, the “αKi, uncompetitive inhibition for PPA” value in data set [12] (varying PPA) came to 19.0 ± 0.6 µM. For the same compound, the “Effect of ATc on activity against wild-type Mtb H37RvMA” value in data set [4] is listed as “no effect”. Further, the “Rescue from compound toxicity by PantS supplementation” value in data set [4] is listed as “rescued the wild-type strain”. Further, the “ΔTm (difference in melting temperature in the presence and absence of 1f)” value in data set [1] was 0 °C and 1 °C. The compound also gave a solubility (kinetic) in data set [5] of 219 µM (≈ 78.4 µg/mL). In addition, the Ki in data set [14] is 10.1 ± 1.4 µM; in data set [15] (varying L-cysteine), 22.7 ± 7.6 µM. Further, in [15], the “Mode of inhibition with respect to L-cysteine” value is given as “noncompetitive inhibition”. In data set [7], the chromatographic logD worked out at 0.8. Also, in [9], the “Mouse Cli (intrinsic clearance)” value is given as 2.3 mL/min/g. Further, the “Activity on the coupled reporter enzymes” value in data set [16] was “inactive”.

As to `O=c1cc(-c2ccc(O)c(O)c2)oc2cc(O)c(O)cc12` [Compound 2b, reference compound], the IC50 in data set [17] was 0.08 µM. Besides, in data set [11], the “Change in abundance of CoA thioesters propionyl-CoA, succinyl-CoA and malonyl-CoA relative to untreated bacilli” value is reported as “notable depletion”; the “Change in abundance of dephospho-CoA relative to untreated bacilli” value was “substantial accumulation”; the “Change in the level of CoA” value is recorded as “no detectable change”. The “MIC against Mtb (whole-cell activity)” value in data set [18] is above 250 µM.

With `CC(C)(CO)[C@@H](O)C(=O)NCCC(=O)O` [Pan, pantothenate], the “Rescue of growth of the coaBC hypomorph” value in data set [19] was “unable to restore growth”. Besides, the “Rescue from growth inhibitory effects of PanC deficiency” value in data set [20] is “fully rescued”.

Consider “Mtb CoaBC (Mycobacterium tuberculosis H37Rv)”, for which the Km is 27.4 ± 2.6 µM in data set [21] and 45.4 ± 5.3 µM in [22].
